Source: patent US5851782A, “Inhibitors of ceramidase” (Duke University, priority 1996, dated 1998)

Columns and labels:
[1] = tested on: HL-60 human myelocytic leukemia cells; test: HL-60 cell proliferation (cell counting); assay type: cell-based; conditions: for effect on cell growth: HL-60 cells, 5 μM, time course
Protocol: (§1) Proliferation and cell cycle studies. HL-60 human myelocytic leukemia cells (obtained from the American Type Culture Collection) were grown in RPMI 1640 medium containing 10 fetal calf serum at 37° C. in 5% CO2 incubator. For proliferation and cell cycle studies, cells were resuspended at a density of 2×10^5 cells/ml in serum-free media containing insulin (5 mg/liter) and transferrin (5 mg/liter) and sodium selenite (5 μg/liter) for 2-4 h. Cells were then treated with the indicated compounds. Ethanol concentration was always maintained at less than 0.1%. Cell proliferation was determined by counting cells using a hemacytometer, cell viability was evaluated by trypan blue dye exclusion, and cell cycle analysis was determined by propidium iodide flow cytometry as described (Chao et al, J. Biol. Chem. 267:23459 (1992)).
In structure-function analysis of ceramide-mediated growth suppression using amides of phenylaminoalcohols, D- and L-erythro-MAPP were employed. In these studies, HL-60 cells were treated with 5 μM of either D-e-MAPP or L-e-MAPP, and growth was determined at the indicated time points (FIG. 2A).
(§2) Studies were conducted examining the uptake and metabolism of D- and L-MAPP. In the first set of studies, the effect of duration of exposure of HL-60 cells to D-e-MAPP on the bioactivity of the molecule was determined. D-e-MAPP added to cells could be washed off by repeated sedimentation and washing of cells. Thus, after five cycles of washing, less than 10% of D-MAPP remained associated with the cell pellet-compared to unwashed cells (FIG. 5A).

HL-60 cells [2] = test: Cell cycle analysis by propidium iodide flow cytometry; assay type: cell-based, human; conditions: HL-60, 5 μM, 48 h
Protocol: as §1

[3] = tested on: ceramide-activated protein phosphatase (CAPP); test: CAPP serine/threonine phosphatase activity in vitro; assay type: biochemical; conditions: myelin basic protein phosphorylated by protein kinase A as substrate
HL-60 cells [4] = test: Uptake of tritium-labeled compounds by HL-60 cells; assay type: cell-based, human; conditions: for partitioning of label taken up into lipid organic phase: HL-60, 0-72 h, 5 to 30 μM; for uptake by cells: 24 hr
Protocol: Uptake and metabolism studies. HL-60 cells were grown as described and treated with ^3 H-labeled compounds at concentrations ranging from 0 to 10 μM. At the indicated time points, cell pellets were separated from media and ^3 H radioactivity was counted.
as §2
Next, the uptake of tritium-labeled D- and L-e-MAPP was examined. To this end, D- and L-e-MAPP labeled in the N-myristoyl group were synthesized and used for uptake and metabolism studies. […] At 24 hr, approximately 20% of D-e-MAPP (5 μM) and 26% of L-e-MAPP (5 μM) were taken up by cells.
The partitioning of the label taken up by cells into the lipid organic phase was evaluated next.

[5] = biological target: T1, Glucosylceramide synthase (Homo sapiens, UniProt Q16739); test: Glucocerebroside (glucosylceramide) synthase assay in vitro; assay type: biochemical; conditions: 20 μM; for Glucosylceramide synthase activity: Control 1.009 ± 0.0424; for inhibition of cerebroside synthase activity: Table I
T1 sequence (Q16739 1-394): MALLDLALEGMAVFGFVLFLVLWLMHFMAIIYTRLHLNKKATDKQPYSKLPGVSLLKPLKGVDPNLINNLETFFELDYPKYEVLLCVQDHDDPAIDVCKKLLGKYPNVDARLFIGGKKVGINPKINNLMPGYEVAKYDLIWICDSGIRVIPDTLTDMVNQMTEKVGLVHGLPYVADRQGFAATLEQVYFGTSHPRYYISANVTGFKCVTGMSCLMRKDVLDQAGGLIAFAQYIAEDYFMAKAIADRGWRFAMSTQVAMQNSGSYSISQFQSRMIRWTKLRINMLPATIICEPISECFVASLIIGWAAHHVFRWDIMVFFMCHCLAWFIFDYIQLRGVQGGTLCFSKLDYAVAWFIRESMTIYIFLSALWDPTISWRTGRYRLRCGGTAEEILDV
Protocol: Glucocerebrosidase and glucocerebroside synthase assays. In vitro assays for gluccerebrosidase and for cerebroside synthase were performed as described (Abe et al, J. Biochem. (Tokyo) 11:191 (1992)).
(§3) In addition to ceramidase, inhibition of cerebroside synthase and sphingomyelin synthase or stimulation of sphingomyelinase or cerebrosidase could result in elevations in endogenous ceramide levels. Therefore, the effects of D- and L-e-MAPP were examined on these enzyme activities in vitro and in cells.

neutral sphingomyelinase = test: Neutral sphingomyelinase activity in vitro; assay type: biochemical
Description: as §3

With CCCCCCCCCCCCCC(=O)N[C@H](C)[C@@H](O)c1ccccc1 [D-e-MAPP, D-erythro-2-(N-myristolyamino)-1-phenyl-1-propanol] the “effect on cell growth, exposure for only 15 min” value ([1]; HL-60, 5 μM, back-extracted with 5 washes after 15 min) was “did not affect cell growth”, the “effect on cell growth, continuous exposure” value ([1]; HL-60, 5 μM, compared to vehicle-treated cells) was “dramatic growth inhibition” and the “effect on cell growth” value [1] was “time dependent suppression of growth”. For the same compound, the “population of cells in G2/M phase” value (HL-60 cells [2]; from 10% untreated) was 3%, the “population of cells in S phase” value (HL-60 cells [2]; from 30% untreated) was 24% and the “population of cells in G0/G1 phase” value (HL-60 cells [2]; from 60% untreated) was 73%. The “activation of CAPP in vitro” value [3] was “neither D-e-MAPP nor L-e-MAPP activated CAPP”, the “partitioning of label taken up into lipid organic phase” value (HL-60 cells [4]) was “majority of the label in D-e-MAPP or L-e-MAPP remained associated with the organic phase” and the uptake by cells (HL-60 cells [4]; HL-60, 5 μM) was “approximately 20%”. The “compound remaining associated with the cell pellet after washing” value (HL-60 cells [4]; HL-60, 5 μM, five cycles of washing, compared to unwashed cells) was “less than 10%”, the Glucosylceramide synthase activity [5] was 0.946 ± 0.0265 nmol/h/mg protein and the “inhibition of cerebroside synthase activity” value [5] was “Neither D- nor L-e-MAPP caused inhibiton of cerebroside synthase activity”. For the same compound, the “effect on activity of neutral sphingomyelinase” value (neutral sphingomyelinase) was “neither D- nor L-e-MAPP modulated the activity of neutral or acidic sphingomyelinases”.

In the case of CCCCCCCCCCCCCC(=O)N[C@@H](C)[C@H](O)c1ccccc1 [L-e-MAPP, L-erythro-2-(N-myristolyamino)-1-phenyl-1-propanol], the “effect on cell growth” value [1] is reported as “largely inactive”, the “effect on cell cycle progression” value (HL-60 cells [2]) is reported as “largely without effect” and the “activation of CAPP in vitro” value [3] is reported as “neither D-e-MAPP nor L-e-MAPP activated CAPP”. For the same compound, the “partitioning of label taken up into lipid organic phase” value (HL-60 cells [4]) was “majority of the label in D-e-MAPP or L-e-MAPP remained associated with the organic phase”, the uptake by cells (HL-60 cells [4]; HL-60, 5 μM) was ~26% and the Glucosylceramide synthase activity [5] was 1.009 ± 0.0383 nmol/h/mg protein. The “inhibition of cerebroside synthase activity” value [5] was “Neither D- nor L-e-MAPP caused inhibiton of cerebroside synthase activity” and the “effect on activity of neutral sphingomyelinase” value (neutral sphingomyelinase) was “neither D- nor L-e-MAPP modulated the activity of neutral or acidic sphingomyelinases”.
